The target of data set [1] is T1, recombinant human plasminogen activator inhibitor-1 (PAI-1) (Homo sapiens, UniProt P05121).
T1 construct: purchased Molecular Innovations, Royal Oak, Mich
As to the kind of experiment: Modification of the Primary Screen for the PAI-1 Inhibition (IC50). Particulars: footnote b: determined by a modification of the Primary Screen for the PAI-1 Inhibition. The data set is classed as biochemical. The protocol:
(§1) Primary Screen for the PAI-1 Inhibition
(§2) Test compounds are dissolved in DMSO at a final concentration of 10 mM, then diluted 100× in physiologic buffer. The inhibitory assay is initiated by the addition of the test compound (1-100 μM final concentration, maximum DMSO concentration of 0.2%) in a pH 6.6 buffer containing 140 nM recombinant human plasminogen activator inhibitor-1 (PAI-1; Molecular Innovations, Royal Oak, Mich.). Following a 1 hour incubation at room temperature, 70 nM of recombinant human tissue plasminogen activator (tPA) is added, and the combination of the test compound, PAI-1 and tPA is incubated for an additional 30 minutes. Following the second incubation, Spectrozyme-tPA (American Diagnostica, Greenwich, Conn.), a chromogenic substrate for tPA, is added and absorbance read at 405 nm at 0 and 60 minutes. Relative PAI-1 inhibition is equal to the residual tPA activity in the presence of the test compound and PAI-1. Control treatments include the complete inhibition of tPA by PAI-1 at the molar ratio employed (2:1), and the absence of any effect of the test compound on tPA alone.

For the next data set, the target named is human PAI-1 (Homo sapiens, UniProt P05121). As to the kind of experiment: Antibody Assay for Determining IC50 of Inhibition of PAI-1 (active PAI-1 bound to tPA-coated plate, 33B8 antibody). The format is binding. The protocol: Assay for Determining IC50 of Inhibition of PAI-1
This assay is based upon the non-SDS dissociable interaction between tPA and active PAI-1. Assay plates are initially coated with human tPA (10 μg/ml). Test compounds are dissolved in DMSO at 10 mM, then diluted with physiologic buffer (pH 7.5) to a final concentration of 1-50 μM. Test compounds are incubated with human PAI-1 (50 ng/ml) for 15 minutes at room temperature. The tPA-coated plate is washed with a solution of 0.05% Tween 20 and 0.1% BSA, then the plate is blocked with a solution of 3% BSA. […] The plate is again washed, and a solution of goat anti-mouse IgG-alkaline phosphatase conjugate is added at a 1:50,000 dilution in goat serum. The plate is incubated 30 minutes at room temperature, washed, and a solution of alkaline phosphatase substrate is added. The plate is incubated 45 minutes at room temperature, and color development is determined at OD405nm. […] Results are analyzed using a logarithmic best-fit equation. The assay sensitivity is 5 ng/ml of human PAI-1 as determined from a standard curve ranging from 0-100 ng/ml.

The target of data set [2] is T1, recombinant human plasminogen activator inhibitor-1 (PAI-1). As to the kind of experiment: Primary Screen for the PAI-1 Inhibition (residual tPA activity, Spectrozyme-tPA chromogenic substrate). The data set is classed as biochemical. The note with it: 25 μM test compound. The protocol: as §1, §2
The mark [3] stands for this setting: footnote a: determined by the Antibody Assay, read-out: IC50.

Each structure is given as a SMILES string. Like-named read-outs stand apart in the source and are kept apart here.

Sequence of human PAI-1 (P05121 24-402): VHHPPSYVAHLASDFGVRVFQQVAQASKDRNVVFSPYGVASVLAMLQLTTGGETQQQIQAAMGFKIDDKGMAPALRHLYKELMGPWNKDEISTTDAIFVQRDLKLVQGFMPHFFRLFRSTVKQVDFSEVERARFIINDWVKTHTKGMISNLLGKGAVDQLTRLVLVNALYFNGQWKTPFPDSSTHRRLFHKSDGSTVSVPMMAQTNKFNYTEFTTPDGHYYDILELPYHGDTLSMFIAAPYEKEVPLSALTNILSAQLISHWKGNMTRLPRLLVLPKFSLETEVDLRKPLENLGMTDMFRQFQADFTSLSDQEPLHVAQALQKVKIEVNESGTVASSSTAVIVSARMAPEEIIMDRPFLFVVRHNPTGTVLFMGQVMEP
T1 sequence (P05121 24-402): as above

Usually melting point stands for the temperature of the solid-liquid transition. The term IC50 denotes the concentration that inhibits the measured activity by half. On to `Cn1cc(C(=O)C(=O)O)c2ccc(-c3ccc(C(F)(F)F)cc3)cc21` [Example 2, {1-Methyl-6-[4-(trifluoromethyl)phenyl]-1H-indol-3-yl}(oxo)acetic acid], for which the melting point was 256 to 257 °C (dec.). In addition, the IC50 in data set [1] was determined as 32 µM.

In the case of `O=C(O)C(=O)c1cn(Cc2ccccc2)c2cc(-c3ccc(OC(F)(F)F)cc3)ccc12` [Example 5, {1-Benzyl-6-[4-(trifluoromethoxy)phenyl]-1H-indol-3-yl}(oxo)acetic acid], on human PAI-1, the midpoint of inhibition, the IC50, lay at 17.3 µM.

As to `CC(C)(C)c1ccc(Cn2cc(C(=O)C(=O)O)c3ccc(-c4ccc(OC(F)(F)F)cc4)cc32)cc1` [Example 8, {1-[4-(tert-Butyl)benzyl]-6-[4-(trifluoromethoxy)phenyl]-1H-indol-3-yl}(oxo)acetic acid], the IC50 in data set [1] worked out at 11.2 µM.

Regarding `O=C(O)C(=O)c1cn(Cc2ccccc2)c2ccc(-c3ccc(F)c(Cl)c3)cc12` [Example 15, [1-Benzyl-5-(3-chloro-4-fluorophenyl)-1H-indol-3-yl](oxo)acetic acid], the melting point is 145 to 146 °C (dec.). In data set [1], the IC50 turned out to be 6.5 µM.

Regarding `O=C(O)C(=O)c1cn(Cc2ccccc2)c2ccc(-c3cc(C(F)(F)F)cc(C(F)(F)F)c3)cc12` [Example 16, {1-Benzyl-5-[3,5-bis(trifluoromethyl)phenyl]-1H-indol-3-yl}(oxo)acetic acid], the melting point was in the range of 206 to 207 °C. Moreover, on human PAI-1 (setting [3]), the IC50 was 11.5 µM.

For `O=C(O)C(=O)c1cn(Cc2ccccc2)c2c(-c3ccc(OC(F)(F)F)cc3)cccc12` [Example 17, {1-Benzyl-7-[4-(trifluoromethoxy)phenyl]-1H-indol-3-yl}(oxo)acetic acid], on human PAI-1 (setting [3]), the IC50 came to 10 µM.

`O=C(O)C(=O)c1cn(Cc2ccccc2)c2c(-c3ccc(F)c(Cl)c3)cccc12` [Example 18, [1-Benzyl-7-(3-chloro-4-fluorophenyl)-1H-indol-3-yl](oxo)acetic acid] had a melting point of 153 to 156 °C. For the same compound, in data set [1], the IC50 turned out to be 19.4 µM.

`CC(C)(C)c1ccc(Cn2cc(C(=O)C(=O)O)c3cc(-c4ccc(OC(F)(F)F)cc4)ccc32)cc1` [Example 19, {1-(4-tert-Butylbenzyl)-5-[4-(trifluoromethoxy)phenyl]-1H-indol-3-yl}(oxo)acetic acid]: in data set [1], the IC50 was determined as 15.8 µM.

The compound `O=C(O)C(=O)c1cn(Cc2ccccc2)c2cc(-c3cccc(Cl)c3)ccc12` [Example 21, [1-Benzyl-6-(3-chlorophenyl)-1H-indol-3-yl](oxo)acetic acid] returned a melting point of 186 to 188 °C. In addition, the IC50 on human PAI-1 (setting [3]) stood at 19.9 µM.

Take `O=C(O)C(=O)c1cn(Cc2ccccc2)c2ccc(-c3cccc(OC(F)(F)F)c3)cc12` [Example 22, {1-Benzyl-5-[3-(trifluoromethoxy)phenyl]-1H-indol-3-yl}(oxo)acetic acid]: the IC50 on human PAI-1 (setting [3]) turned out to be 9.7 µM.

`Cc1ccc(Cn2cc(C(=O)C(=O)O)c3cc(-c4ccccc4)ccc32)cc1` [Example 25, [1-(4-Methylbenzyl)-5-phenyl-1H-indol-3-yl](oxo)acetic acid] had a melting point of 195 to 196 °C. The IC50 in data set [1] turned out to be 14 µM.

As to `Cc1ccc(Cn2cc(C(=O)C(=O)O)c3cc(-c4ccc(OC(F)(F)F)cc4)ccc32)cc1` [Example 26, {1-(4-Methylbenzyl)-5-[4-(trifluoromethoxy)phenyl]-1H-indol-3-yl}(oxo)acetic acid], the melting point was in the range of 192 to 193 °C. In data set [1], the IC50 was found to be 6.8 µM.

With `O=C(O)C(=O)c1cn(Cc2ccc(F)cc2)c2ccc(-c3ccc(OC(F)(F)F)cc3)cc12` [Example 27, {1-(4-Fluorobenzyl)-5-[4-(trifluoromethoxy)phenyl]-1H-indol-3-yl}(oxo)acetic acid], the melting point lay in the range of 158 to 159 °C. Also, the IC50 in data set [1] amounted to 5.3 µM.

The compound `O=C(O)C(=O)c1cn(Cc2ccc(F)cc2)c2ccc(-c3ccccc3)cc12` [Example 28, [1-(4-Fluorobenzyl)-5-phenyl-1H-indol-3-yl](oxo)acetic acid] registered a melting point of 165 to 166 °C. Also, the IC50 at human PAI-1 (setting [3]) was 35 µM.

Take `CCCCn1cc(C(=O)C(=O)O)c2cc(-c3ccc(Cl)cc3)ccc21` [Example 29, [1-Butyl-5-(4-chlorophenyl)-1H-indol-3-yl](oxo)acetic acid]: the melting point is 136 to 137 °C. In addition, half-maximal inhibition against human PAI-1 (IC50) was put at 12.5 µM.

The compound `CCCCn1cc(C(=O)C(=O)O)c2cc(-c3ccc(C(F)(F)F)cc3)ccc21` [Example 33, {1-Butyl-5-[4-(trifluoromethyl)phenyl]-1H-indol-3-yl}(oxo)acetic acid] showed a melting point of 149 °C. For the same compound, the IC50 at human PAI-1 (setting [3]) is 10.5 µM.

For `Cc1cccc(-c2ccc3c(c2)c(C(=O)C(=O)O)cn3Cc2ccc(C(C)(C)C)cc2)c1` [Example 34, [1-(4-tert-Butylbenzyl)-5-(3-methylphenyl)-1H-indol-3-yl](oxo)acetic acid], the IC50 in data set [1] stood at 6.2 µM.

For the compound `COc1cccc(-c2ccc3c(c2)c(C(=O)C(=O)O)cn3Cc2ccc(C(C)(C)C)cc2)c1` [Example 35, [1-(4-tert-Butylbenzyl)-5-(3-methoxyphenyl)-1H-indol-3-yl](oxo)acetic acid], the IC50 in data set [1] turned out to be 14.6 µM.

Consider `CC(C)(C)c1ccc(Cn2cc(C(=O)C(=O)O)c3cc(-c4ccc(C(C)(C)C)cc4)ccc32)cc1` [Example 36, [1-(4-tert-Butylbenzyl)-5-(4-tert-butylphenyl)-1H-indol-3-yl](oxo)acetic acid], for which the melting point is 111 to 112 °C. For the same compound, on human PAI-1 (setting [3]), the 50% inhibitory concentration (IC50) amounted to 10 µM.

For `CC(C)(C)c1ccc(Cn2cc(C(=O)C(=O)O)c3cc(-c4cccc(Cl)c4)ccc32)cc1` [Example 37, [1-(4-tert-Butylbenzyl)-5-(3-chlorophenyl)-1H-indol-3-yl](oxo)acetic acid], the melting point is 138 to 139 °C. On human PAI-1 (setting [3]), the IC50 was determined as 16.4 µM.

Compound `Cc1ccccc1-c1ccc2c(c1)c(C(=O)C(=O)O)cn2Cc1ccc(C(C)(C)C)cc1` [Example 39, [1-(4-tert-Butylbenzyl)-5-(2-methylphenyl)-1H-indol-3-yl](oxo)acetic acid] registered a melting point of 97 to 98 °C. In addition, the IC50 at human PAI-1 (setting [3]) stood at 21.6 µM.

`Cc1ccc(Cn2c(CO)c(C(=O)C(=O)[O-])c3cc(-c4ccc(OC(F)(F)F)cc4)ccc32)cc1.[K+]` [Example 42, {2-(Hydroxymethyl)-1-(4-methylbenzyl)-5-[4-(trifluoromethoxy)phenyl]-1H-indol-3-yl}(oxo)acetic acid, potassium salt] returned a melting point of 248 to 249.5 °C. For the same compound, the IC50 on human PAI-1 (setting [3]) worked out at 45.7 µM.

`CC(=O)OCc1c(C(=O)C(=O)O)c2cc(-c3ccc(OC(F)(F)F)cc3)ccc2n1Cc1ccccc1` [Example 43, {2-[(Acetyloxy)methyl]-1-benzyl-5-[4-(trifluoromethoxy)phenyl]-1H-indol-3-yl}(oxo)acetic acid]: the melting point was 85 to 86 °C. Besides, the IC50 on human PAI-1 (setting [3]) worked out at 17.2 µM.

`O=C([O-])C(=O)c1c(CO)n(Cc2ccccc2)c2ccc(-c3ccc(OC(F)(F)F)cc3)cc12.[K+]` [Example 44, {1-Benzyl-2-(hydroxymethyl)-5-[4-(trifluoromethoxy)phenyl]-1H-indol-3-yl}(oxo)acetic acid, potassium salt]: the melting point lay in the range of 280 to 282 °C. The IC50 at human PAI-1 (setting [3]) was 26.3 µM.

Regarding `O=C(O)C(=O)c1cn(CC2CCCCC2)c2ccc(-c3cccc(Cl)c3)cc12` [Example 48, [5-(3-chlorophenyl)-1-(cyclohexylmethyl)-1H-indol-3-yl](oxo)acetic acid], the IC50 on human PAI-1 (setting [3]) was 13.3 µM.

As a reminder, the inhibition is the relative decrease from the control value, in per cent. Take `Cn1cc(C(=O)O)c2ccc(-c3ccc(C(F)(F)F)cc3)cc21` [Example 60, 1-Methyl-6-(4-trifluoromethyl-phenyl)-1H-indole-3-carboxylic acid]: the melting point is 237 to 239 °C (dec.). Also, the inhibition at 25 µM in data set [2] came out at 39%.

With `Cn1cc(C(=O)O)c2ccc(-c3ccc(C(C)(C)C)cc3)cc21` [Example 61, 6-(4-tert-Butyl-phenyl)-1-methyl-1H-indole-3-carboxylic acid], the melting point is 236 to 238 °C (dec.). The inhibition at 25 µM in data set [2] was determined as 28%.

In turn, `O=C(O)c1cn(Cc2ccccc2)c2ccc(-c3ccc(F)c(Cl)c3)cc12` [Example 62, 1-Benzyl-5-(3-chloro-4-fluoro-phenyl)-1H-indole-3-carboxylic acid] came in with a melting point of 189 to 194 °C. In addition, in data set [2], the inhibition at 25 µM was 53%. Moreover, 11.2 µM corresponded to half-maximal inhibition on human PAI-1 (IC50).

Source of the values: patent US7368471B2, “Substituted indole acid derivatives as inhibitors of plasminogen activator inhibitor-1 (PAI-1)” (Wyeth, priority 2001, dated 2008).
